{
  "source": "PubChem BioAssay AID1963451",
  "about": "(Molecular Pharmacology Branch, DTP, NCI, 2024);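 also: spheroids exposed to compounds for 7 days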;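 as to viability, T/C: 100% = DMSO vehicle control wells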",
  "test_system": "521955-158-R6-J3-PDC complex spheroid growth, % test/control",
  "assay": "Anticancer human tumor 521955-158-R6-J3-PDC patient-derived pancreatic carcinoma cell line growth inhibition [Asc]",
  "details": "for IC50: curve of first compound; for viability, T/C: stronger effect = lower value",
  "procedure,_shortened": "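Concentration series start at each agent's clinical Cmax, or at 10 microM when none is established, and drop in half-log steps; agents are applied alone or together to complex spheroids built with HUVEC and hMSC.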",
  "data": [
    {"smiles": "NC(=O)C(=Cn1cnc(-c2cc(C(F)(F)F)cc(C(F)(F)F)c2)n1)c1cncnc1", "note": "+ CNC(C)C(=O)NC1CN(S(=O)(=O)c2cccc(S(=O)(=O)N3CCC4CCC(C(=O)NC(c5ccccc5)c5ccccc5)N4C(=O)C(NC(=O)C(C)NC)C3)c2)CCC2CCC(C(=O)NC(c3ccccc3)c3ccccc3)N2C1=O", "values": [
      {"measurement": "IC50", "setting": "second compound 0.00316 µM", "value": "> 300", "unit": "nM"},
      {"measurement": "IC50", "setting": "second compound 0.01 µM", "value": "> 300", "unit": "nM"},
      {"measurement": "IC50", "setting": "second compound 0.0316 µM", "value": "> 300", "unit": "nM"},
      {"measurement": "IC50", "setting": "second compound 0.1 µM", "value": "> 300", "unit": "nM"},
      {"measurement": "IC50", "setting": "second compound 0.316 µM", "value": "> 300", "unit": "nM"},
      {"measurement": "IC50", "setting": "second compound 1 µM", "value": "> 300", "unit": "nM"},
      {"measurement": "viability, T/C", "setting": "second compound 0.00316 µM, first compound 0.000949 µM", "value": 114, "unit": "%"},
      {"measurement": "viability, T/C", "setting": "second compound 0.00316 µM, first compound 0.003 µM", "value": 122, "unit": "%"},
      {"measurement": "viability, T/C", "setting": "second compound 0.00316 µM, first compound 0.00949 µM", "value": 119, "unit": "%"},
      {"measurement": "viability, T/C", "setting": "second compound 0.00316 µM, first compound 0.03 µM", "value": 104, "unit": "%"},
      {"measurement": "viability, T/C", "setting": "second compound 0.00316 µM, first compound 0.0949 µM", "value": 93.9, "unit": "%"},
      {"measurement": "viability, T/C", "setting": "second compound 0.00316 µM, first compound 0.3 µM", "value": 66.5, "unit": "%"},
      {"measurement": "viability, T/C", "setting": "second compound 0.01 µM, first compound 0.000949 µM", "value": 71, "unit": "%"},
      {"measurement": "viability, T/C", "setting": "second compound 0.01 µM, first compound 0.003 µM", "value": 69.2, "unit": "%"},
      {"measurement": "viability, T/C", "setting": "second compound 0.01 µM, first compound 0.00949 µM", "value": 59.2, "unit": "%"},
      {"measurement": "viability, T/C", "setting": "second compound 0.01 µM, first compound 0.03 µM", "value": 81.7, "unit": "%"},
      {"measurement": "viability, T/C", "setting": "second compound 0.01 µM, first compound 0.0949 µM", "value": 83.7, "unit": "%"},
      {"measurement": "viability, T/C", "setting": "second compound 0.01 µM, first compound 0.3 µM", "value": 75.5, "unit": "%"},
      {"measurement": "viability, T/C", "setting": "second compound 0.0316 µM, first compound 0.000949 µM", "value": 79.5, "unit": "%"},
      {"measurement": "viability, T/C", "setting": "second compound 0.0316 µM, first compound 0.003 µM", "value": 59.5, "unit": "%"},
      {"measurement": "viability, T/C", "setting": "second compound 0.0316 µM, first compound 0.00949 µM", "value": 63.9, "unit": "%"},
      {"measurement": "viability, T/C", "setting": "second compound 0.0316 µM, first compound 0.03 µM", "value": 62.9, "unit": "%"},
      {"measurement": "viability, T/C", "setting": "second compound 0.0316 µM, first compound 0.0949 µM", "value": 79.6, "unit": "%"},
      {"measurement": "viability, T/C", "setting": "second compound 0.0316 µM, first compound 0.3 µM", "value": 66.6, "unit": "%"},
      {"measurement": "viability, T/C", "setting": "second compound 0.1 µM, first compound 0.000949 µM", "value": 65.7, "unit": "%"},
      {"measurement": "viability, T/C", "setting": "second compound 0.1 µM, first compound 0.003 µM", "value": 69, "unit": "%"},
      {"measurement": "viability, T/C", "setting": "second compound 0.1 µM, first compound 0.00949 µM", "value": 65.2, "unit": "%"},
      {"measurement": "viability, T/C", "setting": "second compound 0.1 µM, first compound 0.03 µM", "value": 58.7, "unit": "%"},
      {"measurement": "viability, T/C", "setting": "second compound 0.1 µM, first compound 0.0949 µM", "value": 75.2, "unit": "%"},
      {"measurement": "viability, T/C", "setting": "second compound 0.1 µM, first compound 0.3 µM", "value": 75.1, "unit": "%"},
      {"measurement": "viability, T/C", "setting": "second compound 0.316 µM, first compound 0.000949 µM", "value": 61, "unit": "%"},
      {"measurement": "viability, T/C", "setting": "second compound 0.316 µM, first compound 0.003 µM", "value": 69.9, "unit": "%"},
      {"measurement": "viability, T/C", "setting": "second compound 0.316 µM, first compound 0.00949 µM", "value": 70.3, "unit": "%"},
      {"measurement": "viability, T/C", "setting": "second compound 0.316 µM, first compound 0.03 µM", "value": 71, "unit": "%"},
      {"measurement": "viability, T/C", "setting": "second compound 0.316 µM, first compound 0.0949 µM", "value": 68, "unit": "%"},
      {"measurement": "viability, T/C", "setting": "second compound 0.316 µM, first compound 0.3 µM", "value": 70.2, "unit": "%"},
      {"measurement": "viability, T/C", "setting": "second compound 1 µM, first compound 0.000949 µM", "value": 54.4, "unit": "%"},
      {"measurement": "viability, T/C", "setting": "second compound 1 µM, first compound 0.003 µM", "value": 66.9, "unit": "%"},
      {"measurement": "viability, T/C", "setting": "second compound 1 µM, first compound 0.00949 µM", "value": 70, "unit": "%"},
      {"measurement": "viability, T/C", "setting": "second compound 1 µM, first compound 0.03 µM", "value": 60.6, "unit": "%"},
      {"measurement": "viability, T/C", "setting": "second compound 1 µM, first compound 0.0949 µM", "value": 86.1, "unit": "%"},
      {"measurement": "viability, T/C", "setting": "second compound 1 µM, first compound 0.3 µM", "value": 62, "unit": "%"}
    ]},
    {"smiles": "NC1CCC(NC2CC2c2ccccc2)CC1", "note": "(centres undefined) + CNC(C)C(=O)NC1CN(S(=O)(=O)c2cccc(S(=O)(=O)N3CCC4CCC(C(=O)NC(c5ccccc5)c5ccccc5)N4C(=O)C(NC(=O)C(C)NC)C3)c2)CCC2CCC(C(=O)NC(c3ccccc3)c3ccccc3)N2C1=O", "values": [
      {"measurement": "IC50", "setting": "second compound 0.00316 µM", "value": "> 100", "unit": "nM"},
      {"measurement": "IC50", "setting": "second compound 0.01 µM", "value": "> 100", "unit": "nM"},
      {"measurement": "IC50", "setting": "second compound 0.0316 µM", "value": "> 100", "unit": "nM"},
      {"measurement": "IC50", "setting": "second compound 0.1 µM", "value": "> 100", "unit": "nM"},
      {"measurement": "IC50", "setting": "second compound 0.316 µM", "value": "> 100", "unit": "nM"},
      {"measurement": "IC50", "setting": "second compound 1 µM", "value": "> 100", "unit": "nM"},
      {"measurement": "viability, T/C", "setting": "second compound 0.00316 µM, first compound 0.000316 µM", "value": 86, "unit": "%"},
      {"measurement": "viability, T/C", "setting": "second compound 0.00316 µM, first compound 0.001 µM", "value": 98.8, "unit": "%"},
      {"measurement": "viability, T/C", "setting": "second compound 0.00316 µM, first compound 0.00316 µM", "value": 95.5, "unit": "%"},
      {"measurement": "viability, T/C", "setting": "second compound 0.00316 µM, first compound 0.01 µM", "value": 92.6, "unit": "%"},
      {"measurement": "viability, T/C", "setting": "second compound 0.00316 µM, first compound 0.0316 µM", "value": 91.1, "unit": "%"},
      {"measurement": "viability, T/C", "setting": "second compound 0.00316 µM, first compound 0.1 µM", "value": 82.1, "unit": "%"},
      {"measurement": "viability, T/C", "setting": "second compound 0.01 µM, first compound 0.000316 µM", "value": 94, "unit": "%"},
      {"measurement": "viability, T/C", "setting": "second compound 0.01 µM, first compound 0.001 µM", "value": 85.2, "unit": "%"},
      {"measurement": "viability, T/C", "setting": "second compound 0.01 µM, first compound 0.00316 µM", "value": 77.6, "unit": "%"},
      {"measurement": "viability, T/C", "setting": "second compound 0.01 µM, first compound 0.01 µM", "value": 93, "unit": "%"},
      {"measurement": "viability, T/C", "setting": "second compound 0.01 µM, first compound 0.0316 µM", "value": 91.4, "unit": "%"},
      {"measurement": "viability, T/C", "setting": "second compound 0.01 µM, first compound 0.1 µM", "value": 82.3, "unit": "%"},
      {"measurement": "viability, T/C", "setting": "second compound 0.0316 µM, first compound 0.000316 µM", "value": 98.1, "unit": "%"},
      {"measurement": "viability, T/C", "setting": "second compound 0.0316 µM, first compound 0.001 µM", "value": 93.4, "unit": "%"},
      {"measurement": "viability, T/C", "setting": "second compound 0.0316 µM, first compound 0.00316 µM", "value": 80, "unit": "%"},
      {"measurement": "viability, T/C", "setting": "second compound 0.0316 µM, first compound 0.01 µM", "value": 93.1, "unit": "%"},
      {"measurement": "viability, T/C", "setting": "second compound 0.0316 µM, first compound 0.0316 µM", "value": 87.8, "unit": "%"},
      {"measurement": "viability, T/C", "setting": "second compound 0.0316 µM, first compound 0.1 µM", "value": 88.8, "unit": "%"},
      {"measurement": "viability, T/C", "setting": "second compound 0.1 µM, first compound 0.000316 µM", "value": 91.4, "unit": "%"},
      {"measurement": "viability, T/C", "setting": "second compound 0.1 µM, first compound 0.001 µM", "value": 80.8, "unit": "%"},
      {"measurement": "viability, T/C", "setting": "second compound 0.1 µM, first compound 0.00316 µM", "value": 68.5, "unit": "%"},
      {"measurement": "viability, T/C", "setting": "second compound 0.1 µM, first compound 0.01 µM", "value": 86.1, "unit": "%"},
      {"measurement": "viability, T/C", "setting": "second compound 0.1 µM, first compound 0.0316 µM", "value": 89.6, "unit": "%"},
      {"measurement": "viability, T/C", "setting": "second compound 0.1 µM, first compound 0.1 µM", "value": 66.3, "unit": "%"},
      {"measurement": "viability, T/C", "setting": "second compound 0.316 µM, first compound 0.000316 µM", "value": 83.8, "unit": "%"},
      {"measurement": "viability, T/C", "setting": "second compound 0.316 µM, first compound 0.001 µM", "value": 89.7, "unit": "%"},
      {"measurement": "viability, T/C", "setting": "second compound 0.316 µM, first compound 0.00316 µM", "value": 84.4, "unit": "%"},
      {"measurement": "viability, T/C", "setting": "second compound 0.316 µM, first compound 0.01 µM", "value": 89, "unit": "%"},
      {"measurement": "viability, T/C", "setting": "second compound 0.316 µM, first compound 0.0316 µM", "value": 71, "unit": "%"},
      {"measurement": "viability, T/C", "setting": "second compound 0.316 µM, first compound 0.1 µM", "value": 79.7, "unit": "%"},
      {"measurement": "viability, T/C", "setting": "second compound 1 µM, first compound 0.000316 µM", "value": 90.1, "unit": "%"},
      {"measurement": "viability, T/C", "setting": "second compound 1 µM, first compound 0.001 µM", "value": 77.8, "unit": "%"},
      {"measurement": "viability, T/C", "setting": "second compound 1 µM, first compound 0.00316 µM", "value": 76.9, "unit": "%"},
      {"measurement": "viability, T/C", "setting": "second compound 1 µM, first compound 0.01 µM", "value": 96.5, "unit": "%"},
      {"measurement": "viability, T/C", "setting": "second compound 1 µM, first compound 0.0316 µM", "value": 92.2, "unit": "%"},
      {"measurement": "viability, T/C", "setting": "second compound 1 µM, first compound 0.1 µM", "value": 83.8, "unit": "%"}
    ]}
  ]
}
